{"source": "patent US20100221763A1", "about": "“Specific Acceptors for Transferases to Saccharides and Method for Obtaining and Using Same” (Health Research, Inc, priority 2005, published 2010)", "key": {"P-Selectin": {"biological_target": "P-Selectin (Homo sapiens, UniProt P16109)", "sequence (P16109 42-830, species assumed)": "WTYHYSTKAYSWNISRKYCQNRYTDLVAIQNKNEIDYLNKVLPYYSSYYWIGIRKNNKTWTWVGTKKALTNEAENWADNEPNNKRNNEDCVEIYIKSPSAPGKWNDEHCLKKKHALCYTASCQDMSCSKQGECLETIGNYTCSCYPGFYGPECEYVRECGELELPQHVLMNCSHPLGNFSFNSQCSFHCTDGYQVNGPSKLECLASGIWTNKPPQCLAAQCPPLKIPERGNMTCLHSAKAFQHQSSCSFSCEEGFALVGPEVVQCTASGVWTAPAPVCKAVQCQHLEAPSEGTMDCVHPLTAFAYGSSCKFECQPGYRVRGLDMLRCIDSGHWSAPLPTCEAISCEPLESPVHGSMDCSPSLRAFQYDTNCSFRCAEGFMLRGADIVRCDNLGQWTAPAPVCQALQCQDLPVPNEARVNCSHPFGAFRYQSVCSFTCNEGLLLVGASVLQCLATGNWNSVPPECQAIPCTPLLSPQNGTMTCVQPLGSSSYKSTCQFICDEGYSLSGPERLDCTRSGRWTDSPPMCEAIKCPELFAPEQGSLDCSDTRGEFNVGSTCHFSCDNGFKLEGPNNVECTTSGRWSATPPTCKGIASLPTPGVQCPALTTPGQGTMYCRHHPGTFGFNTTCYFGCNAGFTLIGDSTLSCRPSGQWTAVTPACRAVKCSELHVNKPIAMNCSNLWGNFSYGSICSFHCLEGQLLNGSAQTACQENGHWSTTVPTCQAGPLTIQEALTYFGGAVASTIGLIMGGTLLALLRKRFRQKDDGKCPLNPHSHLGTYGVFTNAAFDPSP", "conditions": "compared to NeuAcα2,3Galβ1,4(Fucα1,3)GlcNAcβ-O-Me (sialyl Lewis-x); cited from earlier work"}, "L-Selectin": {"biological_target": "L-Selectin (Homo sapiens, UniProt P14151)", "sequence (P14151 39-372, species assumed)": "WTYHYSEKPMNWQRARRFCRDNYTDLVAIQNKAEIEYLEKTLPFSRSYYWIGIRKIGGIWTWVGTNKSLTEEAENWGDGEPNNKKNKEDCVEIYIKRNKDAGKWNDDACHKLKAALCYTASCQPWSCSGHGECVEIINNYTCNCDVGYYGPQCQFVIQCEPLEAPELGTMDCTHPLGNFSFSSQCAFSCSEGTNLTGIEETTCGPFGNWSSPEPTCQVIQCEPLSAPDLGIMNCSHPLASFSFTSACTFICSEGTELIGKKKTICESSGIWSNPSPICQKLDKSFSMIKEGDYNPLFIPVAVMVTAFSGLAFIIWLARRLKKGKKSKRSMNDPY", "conditions": "compared to NeuAcα2,3Galβ1,4(Fucα1,3)GlcNAcβ-O-Me (sialyl Lewis-x); cited from earlier work"}, "Siglec 4 (MAG)": {"system": "Siglec 4 (MAG)", "conditions": "Blixt et al. (49); cited from earlier work"}, "[1]": {"system": "β-GlcNAc:β1,4Gal-T of breast tumor BC9400", "experiment": "β-GlcNAc:β1,4Gal-T assay, breast tumor extract", "format": "biochemical, human", "experimental": "(§1) Colon tumor tissue (CC9338) and breast tumor tissue (BC9400) were obtained during surgical procedures at Roswell Park Cancer Institute and stored frozen within 1 h at −70° C. The tissues were homogenized at 4° C. with 4 volumes of 0.1M Tris Maleate […] 0.1% NaN3 using kinematica. After adjusting the concentration of Triton X-100 to 2%, these homogenates were mixed in the cold room for 1 h using Speci-Mix (Thermolyne) and then centrifuged at 20,000 g for 1 h at 4° C. The clear fat-free supernatant was stored frozen at −20° C. until use. Aliquots of 10 μL from this extract were used in assays run in duplicates. Glycosyltransferase activity in cell lysate was determined by mixing the lysates with acceptor and radiolabeled donor (monosaccharide) under the reaction conditions detailed below, followed by separation of un-reacted donor from the radioactive product using anionic or hydrophobic chromatography. In all cases, the radioactive content of isolated products was determined by using 3a70 scintillation cocktail (Research Products International, Mount Prospect, Ill.) and a Beckman LS6500 scintillation counter. Controls for each assay contained the reaction mixture with everything except the acceptor. All assays were run in duplicate.\n(§2) The acceptors used for measuring the glycosyltransferase and sulfotransferase activities are given in Table I. The following are the conditions for individual enzymatic assays. Reaction temperature in all cases was 37° C. α2,3- and α2,6 sialytransferase (ST) assay reactions proceeded for 2 h in a mixture containing 100 mM sodium cacodylate buffer (pH 6.0), 7.5 mM acceptor, CMP-[9-^3H]NeuAc (typically 0.2 μCi) and 10 μl cell extract in a total volume of 20 μl [Chandrasekaran et al., 1995]. βGlcNAc:β1,4Gal-T and αGalNAc:β1,3Gal-T assay mixtures in duplicate contained 0.1M Hepes-NaOH pH 7.0, 7 mM ATP, 20 mM Mn acetate, 1 mM UDP-Gal, UDP [^14C]Gal (0.05 μCi; 327mCi/mmol; Amersham), 0.5 mM acceptor (unless otherwise stated) and the enzyme in a total volume of 20 μL. It was incubated for 4 h [Chandrasekaran et al., 2001]. βGlcNAc:β1,4GalNAc-T assay mixtures in duplicate contained 0.1M Hepes-NaOH pH 7.0, 7 mM ATP, 20 mM Mn acetate. UDP [^3H] GalNAc (0.20 μCi; 7.8 Ci/mmol: New England Nuclear Corp.) 7.5 mM acceptor (unless otherwise stated) and the enzyme in a total volume of 20 μL and incubated for 4 h [Chandrasekaran et al., 2001].\n(§3) Dowex-1-C1 or Sep-Pak C18 cartridges were used to isolate radiolabeled product from the reaction mixture. For GalT, GalNAc-T and FT assays, the incubation mixture was diluted with 1 ml water and passed through a 1 ml Dowex-1-C1 column [Chandrasekaran et al., 1996; Chandrasekaran et al., 2001]. The column was washed twice with 1 ml of water. The breakthrough and the water wash contained the [^14C]-galactosylated or [^14C]-fucosylated products formed with neutral acceptors. 3 ml of 0.1M NaCl was used to obtain [^14C]-fucosylated products from sialylated acceptors after water elution. For sialytransferase assays, the radioactive products from benzylglycosides were separated by hydrophobic chromatography on Sep-Pak C18 cartridge (Waters, Milford, Mass.), and elution of the product was done with 3 ml methanol [Palcic et al., 1988]. For sulfotransferase assays, elution of the [^35S]-sulfated compound from Dowex-1-C1 column was achieved by 3 ml of 0.2M NaCl [Chandrasekaran et al., 2004]."}, "[2]": {"system": "β-GlcNAc:β1,4GalNAc-T of colon tumor CC9338", "experiment": "β-GlcNAc:β1,4GalNAc-T assay, colon tumor extract", "format": "biochemical, human", "experimental": "as §1, §2, §3"}, "[3]": {"system": "β-GlcNAc:β1,4GalNAc-T of breast tumor BC9400", "experiment": "β-GlcNAc:β1,4GalNAc-T assay, breast tumor extract", "format": "biochemical, human", "experimental": "as §1, §2, §3"}, "[4]": {"system": "β-GlcNAc:β1,4Gal-T of colon tumor CC9338", "experiment": "β-GlcNAc:β1,4Gal-T assay, colon tumor extract", "format": "biochemical, human", "experimental": "as §1, §2, §3"}, "[5]": {"conditions": "Gal-T activity with the same acceptor = 100.0%"}, "[6]": {"conditions": "other acceptors, 1 mg protein of the tissue extract"}, "[7]": {"conditions": "relative to Gal-T activity with the same acceptor"}}}
{"compound": "COC1OC(COC2OC(CO)C(OC3OC(CO)C(O)C(O)C3NC(C)=O)C(OC3OC(C)C(O)C(O)C3O)C2NC(C)=O)C(O)C(OC2OC(CO)C(O)C(OC3(C(=O)O)CC(O)C(NC(C)=O)C(C(O)C(O)CO)O3)C2O)C1NC(C)=O", "note": "(stereo not shown) [GalNAcβ1,4(Fucα1,3)GlcNAcβ1,6(NeuAcα2,3Galβ1,3) GalNAcα-O-Me]", "values": [{"measurement": "fold better inhibitor of P-Selectin binding", "setting": "P-Selectin", "result": "5-6 fold"}, {"measurement": "fold better inhibitor of L-Selectin binding", "setting": "L-Selectin", "result": "5-6 fold"}]}
{"compound": "CC(=O)NC1C(O)CC(OCC2OC(OC(C)C(N)C(=O)O)C(NC(C)=O)C(OC3OC(CO)C(O)C(OC4(C(=O)O)CC(O)C(NC(C)=O)C(C(O)C(O)CO)O4)C3O)C2O)(C(=O)O)OC1C(O)C(O)CO", "note": "(stereo not shown) [NeuAcα2,3Galβ1,3(NeuAcα2,6)GalNAcα-O-Thr, NeuAcα2,3Galβ1,3 (NeuAcα2,6)GalNAcα-O-Thr]", "values": [{"measurement": "fold more potent than NeuAcα2,6GalNAcα-O-Thr in inhibiting Siglec 4 (MAG) binding", "setting": "Siglec 4 (MAG)", "result": "3,000 fold"}]}
{"compound": "CC(=O)NC1C(O)CC(OCC2OC(OC(C)C(N)C(=O)O)C(NC(C)=O)C(OC3OC(CO)C(O)C(O)C3O)C2O)(C(=O)O)OC1C(O)C(O)CO", "note": "(stereo not shown) [NeuAcα2,6(Galβ1,3)GalNAcα-O-Thr]", "values": [{"measurement": "fold more potent than NeuAcα2,6GalNAcα-O-Thr in inhibiting Siglec 4 (MAG) binding", "setting": "Siglec 4 (MAG)", "result": 100, "unit": "fold"}]}
{"compound": "C=CCO[C@H]1O[C@H](CO[C@@H]2O[C@H](CO)[C@@H](O)[C@H](O)[C@H]2NC(C)=O)[C@@H](O)[C@H](O)[C@@H]1O", "note": "[GlcNAcβ1,6Manα-O—Al]", "values": [{"measurement": "a) β-GlcNAc:β1,4Gal-T activity, percent in parentheses", "setting": "[1]; [5]", "result": 100.0, "unit": "%"}, {"measurement": "a) β-GlcNAc:β1,4Gal-T activity: incorporation of radioactive sugar", "setting": "[1]; [6]", "result": 443.6, "unit": "CPM × 10^−3"}, {"measurement": "b) β-GlcNAc:β1,4GalNAc-T activity: incorporation of radioactive sugar", "setting": "[2]; [6]", "result": 54.5, "unit": "CPM × 10^−3"}, {"measurement": "b) β-GlcNAc:β1,4GalNAc-T activity, percent in parentheses", "setting": "[2]; [7]", "result": 11.0, "unit": "%"}, {"measurement": "b) β-GlcNAc:β1,4GalNAc-T activity: incorporation of radioactive sugar", "setting": "[3]; [6]", "result": 99.2, "unit": "CPM × 10^−3"}, {"measurement": "b) β-GlcNAc:β1,4GalNAc-T activity, percent in parentheses", "setting": "[3]; [7]", "result": 22.4, "unit": "%"}, {"measurement": "a) β-GlcNAc:β1,4Gal-T activity, percent in parentheses", "setting": "[4]; [5]", "result": 100.0, "unit": "%"}, {"measurement": "a) β-GlcNAc:β1,4Gal-T activity: incorporation of radioactive sugar", "setting": "[4]; [6]", "result": 493.4, "unit": "CPM × 10^−3"}]}
{"compound": "CC(=O)NC1C(O)CC(OC2C(O)C(CO)OC(OC3C(O)C(CO)OC(OC(C)C(N)C(=O)O)C3NC(C)=O)C2O)(C(=O)O)OC1C(O)C(O)CO", "note": "(stereo not shown) [NeuAcα2,3Galβ1,3GalNAcα-O-Thr]", "values": [{"measurement": "fold more potent than NeuAcα2,6GalNAcα-O-Thr in inhibiting Siglec 4 (MAG) binding", "setting": "Siglec 4 (MAG)", "result": 600, "unit": "fold"}]}
